Experimental data: EPA's ToxValDB 9.5 (doi:10.2903/j.efsa.2009.1167)

Tests used:
Mus musculus = conditions: chronic; duration: 18 months; organ weight
Canidae = conditions: chronic, Dog Other
[1] = chronic, duration: 2 years, histopathology: nonneoplastic
[2] = reproduction developmental, reproduction

CC(C1CC1)C(O)(Cn1cncn1)c1ccc(Cl)cc1 (stereo not given) [Cyproconazole]
NOAEL (Rattus norvegicus; chronic, organ weight): 2 mg/kg-day
NOAEL (Rattus norvegicus; developmental, development): 2 mg/kg-day

CC(C)(C)[C@@H](O)/C(=C\c1ccc(Cl)cc1Cl)n1cncn1 [Diniconazole-M]
NOAEL (Rattus norvegicus; [1]): 5 mg/kg-day
NOAEL (Rattus norvegicus; developmental, development): 5 mg/kg-day

Fc1ccc([C@@]2(Cn3cncn3)O[C@@H]2c2ccccc2Cl)cc1 [Epoxiconazole]
NOAEL (Mus musculus): 0.8 mg/kg-day
NOAEL (Rattus norvegicus; [2]): 2.3 mg/kg-day

C[Si](Cn1cncn1)(c1ccc(F)cc1)c1ccc(F)cc1 [Flusilazole]
NOAEL (Rattus norvegicus; reproduction developmental, organ weight): 0.5 mg/kg-day
NOAEL (Canidae; duration: 1 years): 0.2 mg/kg-day

CCCCC(C#N)(Cn1cncn1)c1ccc(Cl)cc1 (stereo not given) [Myclobutanil]
NOAEL (Rattus norvegicus; [1]): 2.5 mg/kg-day

CCCC1COC(Cn2cncn2)(c2ccc(Cl)cc2Cl)O1 (stereo not given) [Propiconazole]
NOAEL (Rattus norvegicus; developmental, development): 30 mg/kg-day
NOAEL (Rattus norvegicus; [2]): > 2.8 mg/kg-day

CC(C)(C)C(O)(CCc1ccc(Cl)cc1)Cn1cncn1 (stereo not given) [Tebuconazole]
NOAEL (Canidae; histopathology: nonneoplastic): 3 mg/kg-day

CC(C)(C)C(=O)C(Oc1ccc(Cl)cc1)n1cncn1 (stereo not given) [Triadimefon]
NOAEL (Rattus norvegicus; acute): 2 mg/kg-day
NOAEL (Rattus norvegicus; subchronic, duration: 13 weeks): 3.4 mg/kg-day

CC(C)(C)C(O)C(Oc1ccc(Cl)cc1)n1cncn1 (stereo not given) [Triadimenol]
NOAEL (Canidae; duration: 2 years): 4 mg/kg-day
